Laboratory results reported in patent US7285687B2 (priority 2002, dated 2007).
Where two headings read alike, the source gives them in different places.

What was measured:
[1] = tested on: male ICR mice; assay: Suppression of spontaneous activity (SA) in mice, i.v.; format: in vivo, mouse; settings: for ED50: Mus musculus, iv
Procedure: (§1) Male ICR mice (25-32 g), obtained from Harlan (Dublin, Va.), were housed in groups of five. All animals were kept in a temperature-controlled (20-22° C.) environment with a 12-hour light-dark cycle (lights on at 7 a.m.). Separate mice were used for testing each drug dose in the in vivo behavioral procedures. Brain tissue for binding studies was obtained from male Sprague-Dawley rats (150-200 g) purchased from Harlan Laboratories (Dublin, Va.).
(§2) Measurement of spontaneous activity in mice occurred in standard activity chambers interfaced with a Digiscan Animal Activity Monitor (Omnitech Electronics, Inc., Columbus, Ohio). A standard tail-flick apparatus and a digital thermometer (Fisher Scientific, Pittsburgh, Pa.) were used to measure antinociception and rectal temperature, respectively.
(§3) Resorcinols were synthesized in our labs (Organix, Inc., Woburn, Mass.) according to the procedure specified below and were suspended in a vehicle of absolute ethanol, Emulphor-620 (Rhone-Poulenc, Inc., Princeton, N.J.), and saline in a ratio of 1:1:18. Drugs were administered to the mice intravenously (i.v.) in the tail vein at a volume of 0.1 ml/10 g.
(§4) Prior to testing in the behavioral procedures, mice were acclimated to the experimental setting (ambient temperature 22-24° C.) overnight. Pre-injection control values were determined for rectal temperature and tail-flick latency (in sec). Five min after i.v. injection with drug or vehicle, mice were placed in individual activity chambers and spontaneous activity was measured for 10 min. […] Tail-flick latency was measured at 20 min post-injection. Maximum latency of 10 sec was used. Antinociception was calculated as percent of maximum possible effect {% MPE=[(test−control latency)/(10-control)]×100}. Control latencies typically ranged from 1.5 to 4.0 sec. At 30 min post-injection, rectal temperature was measured. This value was expressed as the difference between control temperature (before injection) and temperatures following drug administration (° C.). Different mice (n=5-6 per dose) were tested for each dose of each compound. Each mouse was tested in each of the 3 procedures.
(§5) Based on data obtained from numerous previous studies with cannabinoids, maximal cannabinoid effects in each procedure were estimated as follows: 90% inhibition of spontaneous activity, 100% MPE in the tail flick procedure, and −6° C. change in rectal temperature. ED50's were defined as the dose at which half maximal effect occurred. For drugs that produced one or more cannabinoid effect, ED50's were calculated separately using least-squares linear regression on the linear part of the dose-effect curve for each measure in the mouse tetrad, plotted against log10 transformation of the dose. For the purposes of potency comparison, potencies were expressed as μmol/kg.

[2] = target: T1, CB1 receptor (Rattus norvegicus, UniProt P20272); assay: CB1 binding procedure, displacement of [3H]CP 55,940 from rat whole-brain P2 membranes
T1 construct: whole brain was homogenized and centrifuged; from tissue; host or cells: whole brain of male Sprague-Dawley rats, P2 membrane fraction
T1 sequence (P20272 whole entry): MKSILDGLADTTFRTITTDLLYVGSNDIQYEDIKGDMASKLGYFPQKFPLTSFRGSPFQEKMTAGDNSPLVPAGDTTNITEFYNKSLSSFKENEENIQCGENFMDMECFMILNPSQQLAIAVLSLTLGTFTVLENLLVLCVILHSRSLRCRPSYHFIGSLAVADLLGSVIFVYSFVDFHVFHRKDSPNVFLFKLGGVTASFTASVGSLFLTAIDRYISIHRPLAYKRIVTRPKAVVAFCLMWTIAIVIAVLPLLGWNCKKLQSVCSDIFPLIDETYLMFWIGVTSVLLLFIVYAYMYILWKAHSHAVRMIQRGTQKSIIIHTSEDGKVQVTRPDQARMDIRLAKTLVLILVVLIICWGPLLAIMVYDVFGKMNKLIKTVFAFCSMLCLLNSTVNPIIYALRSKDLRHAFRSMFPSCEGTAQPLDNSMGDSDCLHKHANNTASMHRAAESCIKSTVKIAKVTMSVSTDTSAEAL
Procedure: as §1
The methods used for tissue preparation and binding have been described previously (Compton et al., 1993) and are similar to those described by Devane et al. (1988). All assays, as described briefly below, were performed in triplicate, and the results represent the combined data from three to six individual experiments.
Following decapitation and rapid removal of the brain, whole brain was homogenized and centrifuged. The resulting pellet was termed P1. The supernatant was saved and combined with the two subsequent supernatants obtained from washing of the P1 pellet. The combined supernatant fractions were centrifuged, resulting in the P2 pellet. After further incubation and centrifuging, this pellet was resuspended in assay buffer to a protein concentration of approximately 2 mg/ml. The membrane preparation was quickly frozen in a bath solution of dry ice and 2-methylbutane (Sigma Chemical Co., St. Louis, Mo.), then stored at −80° C. for no more than 2 weeks. Prior to performing a binding assay an aliquot of frozen membrane was rapidly thawed and protein values determined by the method of Bradford (1976).
Binding was initiated by the addition of 150•g of P2 membrane to test tubes containing 1 nM of [^3H] CP 55,940 (79 Ci/mmol) and a sufficient quantity of buffer to bring the total incubation volume to 1 ml. […] Following incubation at 30° C. for 1 hr, binding was terminated by addition of ice cold buffer and vacuum filtration through pretreated filters in a 12-well sampling manifold (Millipore, Bedford, Mass.). After washing, filters were placed into plastic scintillation vials (Packard, Downer Grove, Ill.) and shaken. The quantity of radioactivity present was determined by liquid scintillation spectrometry.
(§6) In addition, multiple linear regression was used to calculate the overall degree of relationship between CB1 binding affinity and potency in the mouse measures for all active cannabinoids. […] Ki values for CB1 and CB2 binding were obtained from Scatchard displacement analysis as determined via EBDA program of the KELL software package (Biosoft, Milltown, N.J.).

[3] = target: T2, CB2 receptor (Homo sapiens, UniProt P34972); assay: CB2 binding procedure, displacement of [3H]CP-55,940 from membranes of transfected CHO cells; settings: for CB1/CB2: ratio of CB1 Ki to CB2 Ki
T2 construct: expressed in transfected cells
T2 sequence (P34972 whole entry): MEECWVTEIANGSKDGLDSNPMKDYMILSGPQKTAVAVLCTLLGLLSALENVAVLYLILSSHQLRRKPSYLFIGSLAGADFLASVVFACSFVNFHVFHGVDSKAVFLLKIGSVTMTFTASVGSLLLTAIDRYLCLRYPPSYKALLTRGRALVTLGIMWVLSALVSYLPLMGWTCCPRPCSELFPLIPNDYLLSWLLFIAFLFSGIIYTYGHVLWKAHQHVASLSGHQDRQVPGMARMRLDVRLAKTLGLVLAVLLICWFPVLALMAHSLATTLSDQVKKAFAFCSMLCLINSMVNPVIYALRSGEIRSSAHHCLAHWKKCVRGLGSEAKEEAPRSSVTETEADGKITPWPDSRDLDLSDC
Procedure: Membranes for CB2 binding were obtained from CHO cells. The transfected cell line was maintained in Dublecco's Modified Eagle Medium (Gibco BRL, Grand Island, N.Y.) with 10% fetal clone II (HyClone Laboratories, Inc., Logan, Utah) plus 0.3 to 0.5 mg/ml G418 (to maintain selective pressure) under 5% CO2 at 37% C. Cells were harvested with 1 mM EDTA in phosphate-buffered saline and were centrifuged at 1000×g for 5 min at 4% C. The supernatant was saved and the P1 pellet was resuspended in centrifugation buffer. Homogenization and centrifugation were repeated twice and the combined supernatant fractions were centrifuged at 40,000×g for 30 min at 4% C. The P2 pellet was resuspended in centrifugation buffer 2 (Tris HCl, 50 mM; EDTA, 1 mM; and MgCl2, 3 mM, pH 7.4) to a protein concentration of approximately 2 mg/ml. Protein concentrations were determined by the method of Bradford (1976) using Bio-Rad Protein Assay (Bio-Rad, Richmond, Calif.) and BSA standards (fatty acid free, Sigma Chemical Co., St. Louis, Mo.). The membrane preparation was divided into amounts convenient for binding assays and frozen rapidly in dry ice and stored at −80% C.
Binding was initiated by the addition of 50•g of quickly thawed P2 membranes to test tubes containing [^3H]CP-55,940 (final reaction concentration 0.5 nM), an appropriate concentration of unlabeled CP-55,940 or test drug, and sufficient quantity of assay buffer (50 mM Tris-HCl, 1 mM EDTA, 3 mM MgCl2, 5 mg/ml bovine serum albumin, pH 7.4) to bring the total incubation volume to 0.5 ml. Concentration of [^3H]CP-55,940 in saturation studies ranged from 50 to 10,000 pM. […] CP-55,940 and all cannabinoid analogs were-prepared by suspension in assay buffer from a 1 mg/ml ethanolic stock without evaporation of the ethanol (final concentration of no more than 0.4%). In competition studies, analog concentrations ranged from 0.1 nM to 10•M. After incubation at […] for 1 hr, binding was terminated by the addition of 2 ml of ice-cold wash buffer (50 mM Tris-HCl and 1 mg/ml BSA) and vacuum filtration through pre-treated filters in a 12-well sampling manifold (Millipore, Bedford, Mass.). Reaction vessels were washed once with 2 ml of ice-cold wash buffer. Filters were placed into 7-ml plastic scintillation vials (RPI Corp., Mount Prospect, Ill.) with 4 ml of Budget-Solve (RPI Corp.). After shaking for 30 min, the radioactivity present was determined by liquid scintillation spectrometry. Three reaction vessels were used for each drug concentration in each assay. The results represent the combined data of three independent experiments. All assays were performed in siliconized test tubes, which were prepared by air drying (12 hr) inverted borosilicate tubes after two rinses with a 0.1% solution of AquaSil (Pierce, Rockford, Ill.). The GF/C glass-fiber filters (2.4 cm, Baxter, McGaw Park, Ill.) were pre-treated in a 0.1% solution of pH 7.4 polyethylenimine (Sigma Chemical Co.) for at least 6 hr.
as §6

[4] = tested on: male ICR mice; assay: Tail-flick antinociception (TF, % MPE) in mice, i.v.; format: in vivo, mouse
Procedure: as §1, §2, §3, §4, §5

[5] = tested on: male ICR mice; assay: Change in rectal temperature (RT) in mice, i.v.; format: in vivo, mouse; settings: for ED50: Mus musculus, iv; for R.T. effect at dose: @ 30 mg/kg, Table 6, 30 mg/kg
Procedure: as §1, §2, §3, §4, §5

[6] = 95% confidence limits in parentheses, read-out: ED50 RT (rectal temperature)

CCCCCCC(C)(C)c1cc(O)c(C2CCCC(C)(C)C2)c(O)c1 (stereo not drawn) [O-1871]
ED50 ([1]; 95% confidence limits in parentheses, read-out: ED50 SA (suppression of spontaneous activity)): < 1 µmol/kg
ED50 ([1]; Table 6, read-out: S.A. ED50): 0.04 mg/kg
Ki ([2]; Table 6, read-out: CB1 KI): 2.3 ± 0.32 nM
Ki ([2]; mean ± SEM, [3H]CP 55,940, rat brain membranes, read-out: Ki(nM) CB1): 2 ± 0.3 nM
Ki ([3]; Table 6, read-out: CB2 KI): 0.3 ± 0.01 nM
Ki ([3]; mean ± SEM, [3H]CP-55,940, transfected CHO cell membranes, read-out: Ki(nM) CB2): 0.3 ± 0.01 nM
CB1/CB2 [3]: 7
ED50 ([4]; Mus musculus, iv, 95% confidence limits in parentheses, read-out: ED50 TF (antinociception in tail flick assay)): 2.3 µmol/kg
ED50 ([4]; Mus musculus, iv, Table 6, read-out: T.F. ED50): 0.7 mg/kg
ED50 [5, 6]: 1.3 µmol/kg
ED50 ([5]; Table 6, read-out: R.T. ED50): 0.37 mg/kg

CCCCCCC(C)(C)c1cc(OC)c(C2(O)CCCC(C)C2)c(OC)c1 (single isomer, unassigned; isomer 2) [O-1967B, 1-[4-(1,1-Dimethyl-heptyl)-2,6-dimethoxy-phenyl]-3-methyl-cyclohexanol isomer 2]
CB1/CB2 [3]: 15
T.F. % effect at dose ([4]; @ 30 mg/kg, Table 6, 30 mg/kg): 8.2% @30
R.T. effect at dose [5]: 0 @ 30 °C

CCCCCCC(C)(C)c1cc(OC)c(C2(O)CCCC(C)C2)c(OC)c1 (single isomer, unassigned; isomer 1) [O-1966A, 1-[4-(1,1-Dimethyl-heptyl)-2,6-dimethoxy-phenyl]-3-methyl-cyclohexanol isomer 1]
CB1/CB2 [3]: 220
R.T. effect at dose [5]: 0.5 @ 30 °C

CCCCCCC(C)(C)c1ccc(-c2cc(C)ccc2C(C)C)c(O)c1 [O-1376, 3-1′,1′-Dimethylhepty-6-(2-isopropyl-5-methylphenyl)phenol]
Ki ([3]; Table 6, read-out: CB2 KI): 2.63 ± 0.36 nM
CB1/CB2 [3]: 11
ED50 [5, 6]: 23 µmol/kg

C=C(C)[C@@H]1CCC(C)=CC1c1c(O)cc(C)cc1O (single isomer, unassigned; (-)) [O-1821, (-)-2-(3-3,4-trans-p-menthadien-(1,8)-yl)-orcinol]
S.A. % effect at dose ([1]; @ 30 mg/kg, Table 6): 0 @ 30%
Ki ([2]; Table 6, read-out: CB1 KI): > 10000 nM
inhibition in vivo at 30 mg/kg ([4]; Mus musculus, iv, @ 30 mg/kg, Table 6, read-out: T.F. % effect at dose): 3%

CCCCCCC(C)(C)c1cc(O)c(C2CCCC(C)C2)c(O)c1 (single isomer, unassigned) [O-1798B, 2-(3-Methylcyclohexyl)-5-(1′,1′-dimethylheptyl)-resorcinolisomer B]
Ki ([2]; Table 6, read-out: CB1 KI): 4.33 ± 0.58 nM
CB1/CB2 [3]: 8
